The values that follow come from US6965033B2, “Bisamidate phosphonate prodrugs” (Metabasis Therapeutics, Inc., priority 1999, dated 2005).

As usually defined, the IC50 is the concentration that inhibits the measured activity by half. A word on the melting point: it is the temperature, or range, at which the solid turns liquid.

The subject of data set [1] is Human Liver Phosphoramidase. In words: Structure Activity Relationship of Human Liver Phosphoramidase (human liver homogenate). The class given is in vitro ADME. Conditions: pH 7.4. The method, then: Human liver, purchased from the Anatomic Gift Foundation (Laurel, Md.), was homogenized in Krebs-bicarbonate buffer and clarified by a slow-speed centrifugation. Prodrug metabolism was evaluated in reaction mixtures containing human liver homogenate (4 mgs protein), 50 mM Tris-HCl, pH 7.4, 10 mM MgCl2, and 10 mM dithiothreitol. At various time intervals over the course of 2 hours, aliquots were removed from the reaction mixtures and deproteinated by addition of methanol to 60%. Following clarification by centrifugation, metabolites were analyzed by reverse phase HPLC with use of a Beckman Ultrasphere ODS column (4.6×150 mm) equipped with an Alltech All-Guard column. The column was equilibrated with 20 mM potassium phosphate, pH 6.2 and eluted with a linear gradient of 0-60% acetonitrile over 20 minutes at a flow rate of 1.5 mL/min and at a temperature of 40° C. UV absorbance was monitored at 300 nm. Most of the prodrugs evaluated were metabolized via a non-rate limiting, esterase-catalyzed step to their monophosphoramidate form within 5 minutes of incubation. The rate of phosphonic acid appearance was therefore essentially a reflection of the rate of the final […] cleavage step. Results for representative prodrugs for which the esterase-catalyzed step was non-rate limiting are shown below: […]

A further data set relates to rat hepatocytes. Description: Inhibition of Gluconeogenesis in Rat Hepatocytes. It is filed as cell-based. Conditions: isolated rat hepatocytes, 10 mM lactate, 1 mM pyruvate, 1 hour, read-out: IC50 Glucose Production. On the procedure: Hepatocytes (75 mg wet weight/ml) were incubated in 1 ml Krebs-bicarbonate buffer containing 10 mM Lactate, 1 mM pyruvate, 1 mg/ml BSA, and test compound concentrations from 1 to 500 μM. […] After 1 hour, an aliquot (0.25 ml) was removed, transferred to an Eppendorf tube and centrifuged. 50 μl of supernatant was then assayed for glucose content using a Sigma Glucose Oxidase kit as per the manufacturer's instructions.

In data set [2] the test system is Zucker Diabetic Fatty (ZDF rat). Description: Acute Oral Efficacy in the ZDF Rat. The class given is in vivo. Conditions: for Blood Glucose, T6h: 6 h after 60 mg/kg oral; for Blood Glucose, % Change: baseline to 6 h, 60 mg/kg oral; for Blood Glucose, Tbaseline: baseline, 60 mg/kg oral group. The method, then: Methods: ZDF rats were purchased from Genetics Inc (Indianapolis, Ind.) at 8 weeks of age. Animals were maintained under standard vivarium conditions and provided with Purina 5008 chow and water ad libitum. At 10-12 weeks of age, rats with blood glucose levels>500 mg/dl were selected and dosed orally either with vehicle (PEG 400), or prodrug (60 mg/kg). Blood glucose levels were monitored at regular intervals for 6 hours following dosing. Blood samples were taken from tail vein nicks and analyzed by means of a HemoCue glucose analyzer (Hemocue, Mission Viejo, Calif.). Statistical analysis was performed using the Student's t test. Means±standard error of the means are shown.

The target in the next data set is T1, rat liver FBPase (Rattus norvegicus, UniProt P19112).
T1 construct: made in house; host or cells: E. coli BL21
T1 sequence (P19112 2-363 limits assumed): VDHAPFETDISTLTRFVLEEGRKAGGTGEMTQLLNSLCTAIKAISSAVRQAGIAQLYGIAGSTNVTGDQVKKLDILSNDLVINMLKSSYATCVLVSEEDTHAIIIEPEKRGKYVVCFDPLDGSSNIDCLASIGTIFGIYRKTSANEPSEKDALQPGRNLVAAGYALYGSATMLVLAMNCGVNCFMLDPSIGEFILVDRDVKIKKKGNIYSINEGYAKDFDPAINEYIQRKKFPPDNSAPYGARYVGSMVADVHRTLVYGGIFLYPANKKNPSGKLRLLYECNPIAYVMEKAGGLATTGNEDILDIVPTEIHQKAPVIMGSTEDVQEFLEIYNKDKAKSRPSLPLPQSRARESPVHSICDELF
In words: Inhibition of Rat Liver FBPase. Conditions: read-out: IC50 (rlFBPase). It is filed as biochemical. The method, then:
E. coli strain BL21 transformed with a human liver FBPase-encoding plasmid was obtained from Dr. M. R. El-Maghrabi at the State University of New York at Stony Brook. The enzyme was typically purified from 10 liters of recombinant E. coli culture as described (M. Gidh-Jain et al., 1994, The Journal of Biological Chemistry 269, pp 27732-27738). Enzymatic activity was measured spectrophotometrically in reactions that coupled the formation of product (fructose 6-phosphate) to the reduction of dimethylthiazoldiphenyltetrazolium bromide (MTT) via NADP^+ and phenazine methosulfate (PMS), using phosphoglucose isomerase and glucose 6-phosphate dehydrogenase as the coupling enzymes. Reaction mixtures (200 μl) were made up in 96-well microtitre plates, and consisted of 50 mM Tris-HCl, pH 7.4, 100 mM KCl, 5 mM EGTA, 2 mM MgCl2, 0.2 mM NADP, 1 mg/ml BSA, 1 mM MTT, 0.6 mM PMS, 1 unit/ml phosphoglucose isomerase, 2 units/ml glucose 6-phosphate dehydrogenase, and 0.150 mM substrate (fructose 1,6-bisphosphate). Inhibitor concentrations were varied from 0.01 μM to 10 μM. Reactions were started by the addition of 0.002 units of pure hlFBPase, and were monitored for 7 minutes at 590 nm in a Molecular Devices Plate Reader (37° C.).
E. coli strain BL21 transformed with a rat liver FBPase-encoding plasmid was obtained from Dr. M. R. El-Maghrabi at the State University of New York at Stony Brook. Recombinant FBPase was purified as described (El-Maghrabi, M. R., and Pilkis, S. J. (1991) BioChem. Biophys. Res. Commun. 176, 137-144) The enzyme assay was identical to that described above for human liver FBPase.

For the next data set, the target named is T2, human liver FBPase (Homo sapiens, UniProt P09467).
T2 construct: made in house; host or cells: E. coli BL21
T2 sequence (P09467 2-338 limits assumed): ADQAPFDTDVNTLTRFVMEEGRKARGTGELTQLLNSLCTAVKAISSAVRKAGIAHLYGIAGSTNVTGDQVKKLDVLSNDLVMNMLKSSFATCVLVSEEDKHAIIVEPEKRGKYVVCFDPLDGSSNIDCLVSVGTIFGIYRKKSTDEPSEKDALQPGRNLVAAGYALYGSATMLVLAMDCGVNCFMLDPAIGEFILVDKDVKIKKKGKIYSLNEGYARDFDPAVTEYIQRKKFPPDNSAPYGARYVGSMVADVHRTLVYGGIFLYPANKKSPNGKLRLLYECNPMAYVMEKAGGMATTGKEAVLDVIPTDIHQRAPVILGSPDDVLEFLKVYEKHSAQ
Description: Inhibition of Human Liver FBPase. It is filed as biochemical. Conditions: read-out: IC50 (hlFBPase). The method, then: […] […] Enzymatic activity was measured spectrophotometrically in reactions that coupled the formation of product (fructose 6-phosphate) to the reduction of dimethylthiazoldiphenyltetrazolium bromide (MTT) via NADP^+ and phenazine methosulfate (PMS), using phosphoglucose isomerase and glucose 6-phosphate dehydrogenase as the coupling enzymes. […] Inhibitor concentrations were varied from 0.01 μM to 10 μM. Reactions were started by the addition of 0.002 units of pure hlFBPase, and were monitored for 7 minutes at 590 nm in a Molecular Devices Plate Reader (37° C.).

The structures appear in SMILES notation. Where two headings read alike, the source gives them in different places.

With `CCOC(=O)CN(C)P(=O)(c1ccc(-c2nc(N)sc2CC(C)C)o1)N(C)CC(=O)OCC` [Compound 50.10, 2-Amino-5-isobutyl-4-{2-[5-(N,N′-bis(ethoxycarbonylmethyl)-N,N′-dimethylphosphonamido)]furanyl}thiazole], the “Phosphoramidase Activity (Rate of 3.1 or 3.58 production, nmoles/mn/mg liver protein)” value (shortened to “Phosphoramidase Activity”) in data set [1] was 0.005 nmoles/mn/mg liver protein.
Same read-out and setting: the figure for `CCOC(=O)CNP(=O)(NCC(=O)OCC)c1ccc(-c2nc(N)sc2CC(C)C)o1` [Compound 50.8] is 0.019 nmoles/mn/mg liver protein.
Turning to `CCOC(=O)C(C)(C)NP(=O)(NC(C)(C)C(=O)OCC)c1ccc(-c2nc(N)sc2CC(C)C)o1` [Compound 50.9], the concentration for half-maximal inhibition (IC50) with rat hepatocytes was 2200 nM. In addition, in data set [2], the “Blood Glucose, T6h” value worked out at 410 ± 18 mg/dL; the “Blood Glucose, % Change” value was −32%; the “Blood Glucose, Tbaseline” value is 602 ± 26 mg/dL.
As for `CCCc1cnc(N)nc1-c1ccc(P(=O)(O)O)o1` [Compound 16.1, 2-amino-5-propyl-4-[2-(5-phosphono)furanyl]pyrimidine], the melting point fell in the range of 258 to 259 °C. Also, the IC50 in the data set with rat hepatocytes (Hepatocyte) is 10000 nM. The IC50 on rat liver FBPase was 1800 nM. Besides, at human liver FBPase, the IC50 turned out to be 60 nM.
With `CCCSc1sc(N)nc1-c1ccc(P(=O)(NC2(C(=O)OCC)CCCC2)NC2(C(=O)OCC)CCCC2)o1` [Compound 52.12, 2-Amino-propylthio-4-[2-{5-(N,N′-bis(1-ethoxycarbonyl)cyclopentyl)phosphonamido}furanyl]thiazole], in data set [1], the “Phosphoramidase Activity” value was 0.032 nmoles/mn/mg liver protein.
Consider `CCCSc1sc(N)nc1-c1ccc(P(=O)(NC(C)C(=O)OC(C)C)NC(C)C(=O)OC(C)C)o1` (stereo not drawn) [Compound 50.20, 2-Amino-5-propylthio-4-{2-[5-(N,N′-(1-methyl-ethoxycarbonyl)ethyl)phosphonamido]furanyl}thiazole], for which the “Phosphoramidase Activity” value in data set [1] is listed as 0.085 nmoles/mn/mg liver protein.
Regarding `CCCSc1sc(N)nc1-c1ccc(P(=O)(N[C@@H](CCC)C(=O)OCC)N[C@@H](CCC)C(=O)OCC)o1` [Compound 52.16], the “Phosphoramidase Activity” value in data set [1] is given as 0.033 nmoles/mn/mg liver protein.
For the molecule `Nc1ccc(C2CC2)c(-c2ccc(P(=O)(O)O)o2)n1` [Compound 15.20, 2-Amino-5-cyclopropyl-6-[2-(5-phosphono)furanyl]pyridine], the values for the IC50 on rat liver FBPase and at human liver FBPase were 600 nM and 40 nM, respectively.
On the same counts, the results for `CCCSc1oc(N)nc1-c1ccc(P(=O)(O)O)o1` [Compound 10.43, 2-Amino-5-propylthio-4-[2-(5-phosphono)furanyl]oxazole] are 800 nM and 70 nM.
On the same counts, the results for `CCCc1ccc(N)nc1-c1ccc(P(=O)(O)O)o1` [Compound 15.14, 6-Amino-3-propyl-2-[2-(5-phosphono)furanyl]pyridine] are 680 nM and 32 nM.
On to `CCCSc1sc(N)nc1-c1ccc(P(=O)(N[C@@H](COC(C)(C)C)C(=O)OC)N[C@@H](COC(C)(C)C)C(=O)OC)o1` [Compound 52.8, 2-Amino-5-propylthio-4-{2-[5-(N,N′-bis(S)-1-methoxycarbonyl-2-(t-butoxy)ethyl)phosphonamido]furanyl}thiazole], for which the “Phosphoramidase Activity” value in data set [1] is reported as 0.025 nmoles/mn/mg liver protein.
For `CCCc1oc(N)nc1-c1ccc(P(=O)(O)O)o1` [Compound 10.2, 2-Amino-5-propyl-4-[2-(5-phosphono)furanyl]oxazole], the IC50 in the data set on rat hepatocytes (Hepatocyte) is 16000 nM; on rat liver FBPase it was 2500 nM.
Turning to `CC(C)Cc1sc(N)nc1-c1ccc(P(=O)(N[C@@H](C)C(=O)OCc2ccccc2)N[C@@H](C)C(=O)OCc2ccccc2)o1` [Compound 50.2, 2-Amino-5-isobutyl-4-[2-(5-N,N-bis(L-alanine acid dibenzyl ester)phosphonoamido)furanyl]thiazole], the half-inhibitory concentration (IC50) with rat hepatocytes is 2100 nM. For the same molecule, in data set [2], the “Blood Glucose, T6h” value came out at 415 ± 15 mg/dL; the “Blood Glucose, % Change” value is recorded as −30%; the “Blood Glucose, Tbaseline” value amounted to 591 ± 35 mg/dL.
`CCOC(=O)[C@H](Cc1ccccc1)NP(=O)(N[C@@H](Cc1ccccc1)C(=O)OCC)c1ccc(-c2nc(N)sc2CC(C)C)o1` [Compound 50.19, 2-Amino-5-isobutyl-4-{2-[5-(N,N′-bis((S)-1-ethoxycarbonyl-2-phenyl)ethyl)phosphonamido]furanyl}thiazole]: in data set [1], the “Phosphoramidase Activity” value is recorded as 0.029 nmoles/mn/mg liver protein.
On the same count and under the same terms, the figure for `COC(=O)[C@H](CC(C)C)NP(=O)(N[C@@H](CC(C)C)C(=O)OC)c1ccc(-c2nc(N)sc2CC(C)C)o1` [Compound 50.12, 2-Amino-5-isobutyl-4-{2-[5-(N,N′-bis((S)-1-methoxycarbonyl-3-methyl)butyl)phosphonamido]furanyl}thiazole] is 0.022 nmoles/mn/mg liver protein.
For `Cc1nc(-c2ccc(P(=O)(O)O)o2)c(CC(C)C)s1` [Compound 3.2, 2-Methyl-5-isobutyl-4-[2-(5-phosphono)furanyl]thiazole], the values for the concentration for half-maximal inhibition (IC50) in the data set with rat hepatocytes (Hepatocyte) and on rat liver FBPase were 26000 nM and 2500 nM, respectively.
